According to paper PMC5556071, “ATR inhibition facilitates targeting of leukemia dependence on convergent nucleotide biosynthetic pathways” (Nature Communications, 2017):
Where “and” joins values, the source holds several entries; their conditions need not be identical. Equal entries are not always repeated.

Tested on: CEM cells
Test: Non-targeted LC-MS metabolite profiling: percent [13C6]glucose labeling and relative metabolite levels
Format: cell-based, human
Conditions: CEM cells, 12 h following release from G1 arrest, replicates #1-#6
Text: To further investigate the functions of dCK and ATR at the G1/S transition in CEM cells, a non-targeted liquid chromatography mass spectrometry (LC-MS) assay was used to determine the utilization of labeled [^13C6]glucose and [^13C9,^15N3]deoxycytidine, the main substrates for de novo and salvage nucleotide biosynthesis, respectively. Of the 166 metabolites identified in CEM cells treated with VE-822 and/or dCKi, 105 metabolites found in all four treatment groups contained glucose-derived ^13C atoms. […] These metabolites included intermediates such as rUTP, rCTP and rCDP in the de novo dCTP biosynthesis (Fig. 1d). […] However, several deoxyribonucleotides, including dCTP, were below the limit of detection of the non-targeted LC-MS approach, raising the concern that the sensitivity of this assay is not sufficient to measure the contribution of the salvage pathway or the ratio of de novo and salvage biosynthesis to these pools. To address this problem, a newly developed targeted MS assay was developed (Fig. 1e and Supplementary Fig. 3). In this assay, samples containing either extracted dNTPs or hydrolyzed DNA from labeled cells are separated by LC for detection by a triple quadrupole mass spectrometer using multiple reaction monitoring (LC-MS/MS-MRM). The first (Q1) and third (Q3) quadrupoles function as mass filters, while the second (Q2) quadrupole serves as a collision chamber (Fig. 1e). For instance, to profile the biosynthetic composition of deoxycytidine (dC) derived from hydrolyzed DNA or dCTP, an intact, protonated dC ion is selected in Q1, followed by fragmentation of the glycosidic bond, which releases protonated cytosine in Q2, that is filtered in Q3 and detected to generate an ion chromatogram. The peak areas for the ion chromatograms of salvage [^13C9,^15N3]dC (red trace), de novo [^13C5]dC (black trace, from [^13C6]glucose) and unlabeled dC (gray trace) (Fig. 1e) are used to determine the relative contributions of the de novo and salvage routes both to dCTP pools and to DNA-incorporated dCTP.
Cells were transferred into RPMI-1640 without glucose and supplemented with 10% dialyzed FBS (Gibco) containing the following labeled substrates: precursors for de novo [U-^13C6]glucose (Sigma-Aldrich, 389374) at 11 mM; precursors for purine salvage [U-^13C10,^15N5]dA (Cambridge Isotopes, CIL 3896), [^15N5]dA (Cambridge Isotopes, NLM-3895) and [^15N5]dG (Cambridge Isotopes, NLM-3899) at 5 µM or as indicated; and precursors for pyrimidine salvage: [U-^13C9,^15N3]dC (Silantes, 124603602) and [U-^13C10,^15N2]dT (Cambridge Isotopes, CNLM-3902) at 5 µM and [^15N2]orotate (Cambridge Isotopes, NLM-1048) at indicated concentrations. The cells were incubated for 12 h or as indicated before sample collection and processing. […]
Non-targeted LC-MS metabolic assays. 1 x 10^6 cells were washed with ice-cold 150 mM ammonium acetate twice before adding 1 mL of ice-cold 80% methanol with 10 nM norvaline as an internal standard. After vigorous vortexing, samples were centrifuged at maximum speed, the aqueous layer was transferred to a glass vial and the metabolites were dried under vacuum. Metabolites were resuspended in 50 μL 70% acetonitrile (ACN) and 5 μL of this solution used for the mass spectrometer-based analysis. The analysis was performed on a Q Exactive (Thermo Scientific) in polarity-switching mode with positive voltage 4.0 kV and negative voltage 4.0 kV. The mass spectrometer was coupled to an UltiMate 3000RSLC (Thermo Scientific) UHPLC system. Mobile phase A was 5 mM ammonium acetate (NH4AcO), pH 9.9, B was acetonitrile and the separation achieved on a Luna […] NH2 100 A column (150 × 2.0 mm, Phenomenex). The flow was 200 μL/min, and the gradient ran from 15% A to 95% A in 18 min, followed by an isocratic step for 9 min and re-equilibration for 7 min. Metabolites were detected and quantified as area under the curve based on retention time and accurate mass (≤ 3 p.p.m.) using the TraceFinder 3.1 (Thermo Scientific). Relative amounts of […]

[1] = metabolite Asn (C00152), listed as D
[2] = metabolite Asp (C00049), listed as D
[3] = metabolite Carnitine (C00318), listed as D
[4] = metabolite G3P (KEGG C00118), listed as D
[5] = metabolite G6P-F6P (KEGG C00668), listed as D
[6] = metabolite GABA (KEGG C00334), listed as D
[7] = metabolite GDP (KEGG C00035), listed as D
[8] = metabolite GMP (KEGG C00144), listed as D
[9] = metabolite GSH (KEGG C00051), listed as D
[10] = metabolite GSSG (KEGG C00127), listed as D
[11] = metabolite GTP (KEGG C00044), listed as D
[12] = metabolite Glc (KEGG C00031), listed as D
[13] = metabolite GlcA (KEGG C00257), listed as D
[14] = metabolite GlcN-6P (KEGG C00352), listed as D
[15] = metabolite GlcNAc-6P (KEGG C00357), listed as D
[16] = metabolite Gln (KEGG C00064), listed as D
[17] = metabolite Glu (KEGG C00025), listed as D
[18] = metabolite GlucA (KEGG C00191), listed as D
[19] = metabolite Gly (KEGG C00037), listed as D
[20] = metabolite Glycerol (KEGG C00116), listed as D
[21] = metabolite Glycerol-2-P (KEGG C02979), listed as D
[22] = metabolite Glycerol-3-P (KEGG C00093), listed as D
[23] = metabolite His (KEGG C00135), listed as D
[24] = metabolite Homocysteine (KEGG C00155), listed as D
[25] = metabolite Hypoxanthine (KEGG C00262), listed as D
[26] = metabolite IMP (KEGG C00130), listed as D
[27] = metabolite Inosine (KEGG C00294), listed as D
[28] = metabolite a-KG (C00026), listed as D

SMILES: COc1ccc(-c2nc([C@@H](C)Sc3nc(N)cc(N)n3)c(C)s2)cc1OCCNS(C)(=O)=O [dCKi]
- Relative level, Arg-Succ (metabolite Arg-Succ (C03406), listed as D): 1.1 and 1.2 and 1.4 and 0.428 and 0.458 and 0.6
- Glucose labeling, Asn [1]: 0.000993% and 2.77e-6% and 0.00524% and 0.00322% and 0.000183% and 2.2e-6%
- Relative level, Asn [1]: 1.1 and 1.3 (2×) and 0.8 and 0.7 and 0.85
- Glucose labeling, Asp [2]: 24.08% and 25.99% and 25.39% and 25.08% and 25.80% and 25.92%
- Relative level, Asp [2]: 0.9 (3×) and 1.1 and 0.5 and 0.6
- Glucose labeling, C (metabolite C (D07769), listed as D): 0.44% (4×) and 0.15% and 0.31%
- Relative level, C (metabolite C, listed as D): 1.0 and 1.2 and 1.3 (2×) and 1.4 and 1.1
- Glucose labeling, Carnitine [3]: 0.0041% and 0.00586% and 0.00566% and 0.00463% and 0.00467% and 0.00476%
- Relative level, Carnitine [3]: 1.0 and 1.1 (2×) and 0.9 (2×) and 0.843
- Glucose labeling of G3P [4]: 100.00% (3×) and 0.0369% (3×)
- Relative level of G3P [4]: 0.316 and 1.2 and 0.237 and 0.232
- Glucose labeling of G6P-F6P [5]: 57.18% and 69.30% and 72.35% and 21.95% and 56.24% and 64.94%
- Relative level of G6P-F6P [5]: 0.6 and 0.7 and 1.0 and 0.163 and 0.339 and 0.4
- Glucose labeling of GABA [6]: 0.0266% and 0.0568% and 0.0445% and 0.0322% and 0.0737% (2×)
- Relative level of GABA [6]: 1.2 and 1.4 and 1.5 and 0.6 and 0.5 and 0.466
- Glucose labeling of GDP [7]: 100.00% (2×) and 89.71% and 79.16% and 66.81% and 77.84%
- Relative level of GDP [7]: 0.278 and 0.74 and 2.1 and 0.0943 and 0.533
- Glucose labeling of GMP [8]: 82.17% and 84.38% and 86.57% and 100.00% and 55.56% and 83.28%
- Relative level of GMP [8]: 1.0 (2×) and 2.5 and 0.177 and 0.7
- Glucose labeling of GSH [9]: 24.91% and 25.95% and 26.01% and 22.52% and 20.58% and 22.91%
- Relative level of GSH [9]: 0.8 and 1.1 and 1.4 and 0.2 and 0.245 and 0.4
- Glucose labeling of GSSG [10]: 44.73% and 47.85% and 45.35% and 40.72% and 38.47% and 41.79%
- Relative level of GSSG [10]: 1.0 (2×) and 1.3 and 1.5 and 0.364 and 0.7
- Glucose labeling of GTP [11]: 88.53% and 93.02% and 84.10% and 100.00% and 95.85% and 82.17%
- Relative level of GTP [11]: 0.137 and 0.6 and 1.3 and 0.0117 and 0.173 and 0.5
- Glucose labeling of Glc [12]: 48.02% and 85.76% and 96.57% and 84.10% and 87.56% and 88.93%
- Relative level of Glc [12]: 0.632 and 1.4 and 6.6 and 1.5 and 2.2 and 2.0
- Glucose labeling of GlcA [13]: 38.48% and 42.08% and 42.11% and 29.34% and 32.69% and 34.11%
- Relative level of GlcA [13]: 1.0 (2×) and 1.4 and 0.4 and 0.5 and 0.7
- Glucose labeling of GlcN (metabolite GlcN (KEGG C00329)): 0.18%
- Relative level of GlcN (metabolite GlcN (KEGG C00329), listed as D): 1.4 and 0.948 and 0.9 (2×) and 1.0 and 0.8
- Glucose labeling of GlcN-6P [14]: 6.04% and 8.63% and 7.74% and 8.56% and 9.86% and 9.69%
- Relative level of GlcN-6P [14]: 0.8 and 0.847 and 1.1 and 0.743 and 0.7 and 1.0
- Glucose labeling of GlcNAc-6P [15]: 12.90% and 10.87% and 25.06% and 34.14% and 41.68% and 27.99%
- Relative level of GlcNAc-6P [15]: 0.636 and 0.8 and 1.2 and 0.212 and 0.6 (2×)
- Glucose labeling of Gln [16]: 0.24% and 0.28% (4×) and 0.29%
- Relative level of Gln [16]: 1.0 (2×) and 1.2 and 1.3 and 0.9 (2×)
- Glucose labeling of Glu [17]: 30.50% and 31.50% and 31.06% and 32.25% and 32.69% and 32.43%
- Relative level of Glu [17]: 1.0 and 1.1 and 1.2 and 0.6 (2×) and 0.751
- Glucose labeling of GlucA [18]: 0.47% and 1.38% and 1.95% and 0.76% and 1.61% and 0.18%
- Relative level of GlucA [18]: 1.5 and 0.9 and 1.3 and 0.635 and 0.563 and 0.7
- Glucose labeling of Gly [19]: 5.78% and 6.19% and 5.38% and 3.11% and 3.32% and 3.83%
- Relative level of Gly [19]: 1.1 and 1.3 and 1.2 (2×) and 0.9 and 0.854
- Glucose labeling of Glycerol [20]: 0.0257% and 0.0369% (2×) and 0.03% and 0.00165% and 0.0279%
- Relative level of Glycerol [20]: 0.8 (2×) and 0.7 and 1.5 and 2.6 and 2.4
- Glucose labeling of Glycerol-2-P [21]: 12.49% and 5.31% and 20.27% and 20.32% and 0.0369% and 11.49%
- Relative level of Glycerol-2-P [21]: 0.6 and 0.5 and 1.9 and 0.0423 and 0.16 and 0.346
- Glucose labeling of Glycerol-3-P [22]: 15.24% and 16.29% and 15.98% and 18.03% and 18.16% and 17.98%
- Relative level of Glycerol-3-P [22]: 1.0 and 0.9 (2×) and 0.7 (2×) and 0.656
- Glucose labeling of HS2O3 (metabolite HS2O3 (KEGG C00320)): 100.00%
- Relative level of HS2O3 (metabolite HS2O3 (KEGG C00320), listed as D): 0.9 (2×) and 1.0 and 0.8 and 1.1 (2×)
- Glucose labeling of His [23]: 0.00% (5×) and 1.11e-14%
- Relative level of His [23]: 1.2 and 1.3 and 1.5 and 0.76 and 0.6 and 0.7
- Glucose labeling of Homocysteine [24]: 0.022% and 0.0737% and 0.000309% and 0.01% and 0.000455% and 0.23%
- Relative level of Homocysteine [24]: 2.7 and 0.5 and 1.5 (2×) and 3.4 and 0.855
- Glucose labeling of Hypoxanthine [25]: 0.00941% and 0.12% (4×) and 0.06%
- Relative level of Hypoxanthine [25]: 2.0 and 0.2 and 1.0 and 1.3 (2×) and 2.9
- Glucose labeling of IMP [26]: 93.29% and 98.06% and 95.55% and 100.00% and 94.31% and 97.32%
- Relative level of IMP [26]: 0.7 and 0.8 and 1.6 and 0.111 and 0.323 and 0.6
- Glucose labeling of Inosine [27]: 0.55% (4×) and 100.00% and 49.07%
- Relative level of Inosine [27]: 0.5 and 0.547 and 0.3 and 0.568 and 0.6
- Glucose labeling of Inositol (metabolite Inositol (KEGG C00137)): 0.00%
- Relative level of Inositol (metabolite Inositol (KEGG C00137), listed as D): 1.0 (2×) and 1.6 (2×) and 1.1 (2×)
- Glucose labeling, a-KG [28]: 4.27% and 11.78% and 16.08% and 0.12% (2×) and 4.73%
- Relative level, a-KG [28]: 0.7 and 1.1 and 2.3 and 0.0795 and 0.14 and 0.259
